Data taken from patent publication US8592454B2, “Nitrogen-containing heterocyclic compound and use of same” (Takeda Pharmaceutical Company Limited, priority 2008, dated 2013).
Counter-ions that a name gives are not always drawn. Like-named read-outs stand apart in the source and are kept apart here.

Legend:
[1] = molecular target: Human NK1 Receptor (Homo sapiens (Human), UniProt P25103); test: Human NK1 receptor binding assay: radioligand (125I-Bolton-Hunter-SP) binding inhibitory activity using receptor from human lymphoblast cells (IM-9); conditions: hNK1 receptor binding inhibition
[2] = molecular target: Human NK2 (hNK2) receptor (Homo sapiens (Human), UniProt P21452); test: Human NK2 receptor binding assay: radioligand ([125I]-NK-A) binding inhibitory activity using membrane fraction of CHO cell expressing human NK2 (hNK2) receptor; conditions: hNK2 receptor binding inhibition
Source text: Human NK2 Receptor Binding Assay

[3] = molecular target: Human NK3 (hNK3) receptor (Homo sapiens (Human), UniProt P29371)
Description: Human NK3 Receptor Binding Assay
CHO cells expressing hNK3 receptor were cultured in a MEMα medium (Nikken Seibutsu Igaku Kenkyusho, K.K.) containing 100 U/mL penicillin, 100 μg/mL streptomycin and 10% inactivated dialyzed serum. The medium was removed, the adhered cells were washed with PBS, and PBS containing 5 mM EDTA was added to detach the cells from the flask. The cells were collected by centrifugation, suspended in suspension buffer A (50 mM Tris-HCl (pH 7.4) containing 120 mM NaCl, 5 mM KCl, 2 μg/mL chymostatin, 40 μg/mL bacitracin, 40 μg/ml APMSF, 1 mM EDTA), disrupted by a Polytron homogenizer (Kinematika), and centrifuged at 800×g for 10 min. The supernatant was recovered and ultracentrifuged at 100,000×g for 25 min. The precipitation fraction was suspended in suspension buffer B (50 mM Tris-HCl (pH 7.4), 0.02% bovine serum albumin, 2 μg/ml chymostatin, 40 μg/ml bacitracin, 40 μg/mL APMSF, 3 mM MnCl2), and cryopreserved (−80° C.) as a receptor reference standard.
Measurement buffer (50 mM Tris-HCl (pH 7.4), 0.02% bovine serum albumin, 2 μg/ml chymostatin, 40 μg/mL bacitracin, 40 μg/mL APMSF, 3 mM MnCl2) (50 μL) was added to a 96-well microassay plate. The membrane reference standard (300 μg/mL) suspended in a measurement buffer was added by 50 μL. […] Furthermore, 400 μM [^125I]-NK-B (Neurokinin-B (N-Me-Phe^7), [^125I]His^3-) (PerkinElmer) solution was added to each well by 50 μL.
After reaction at 25° C. for 30 min, the reaction was quenched using a cell harvester (PerkinElmer) by rapid filtration on a GF/C filter plate, and the cells were washed 5 times with 250 μL of a 50 mM Tris-HCl buffer (pH 7.4) containing 0.02% bovine serum albumin. The GF/C filter plate was dried, MicroScinti-0 (Perkin Elmer) was added by 20 μL, and the radioactivity was measured on a TopCount (PerkinElmer). The GF/C filter plate used had been immersed in 0.3% polyethyleneimine for one day.
The specific binding level is shown by a value obtained by subtracting non-specific binding level from the total binding level. The binding inhibitory activity of the test compound is shown by a ratio of the value obtained by subtracting the measurement value with addition of a test compound from the total binding level, to the value of the specific binding level.

[4] = read-out: IC50 value hNK3, hNK3 receptor binding inhibition

Human NK3 (hNK3) receptor, sequence (P29371 whole entry): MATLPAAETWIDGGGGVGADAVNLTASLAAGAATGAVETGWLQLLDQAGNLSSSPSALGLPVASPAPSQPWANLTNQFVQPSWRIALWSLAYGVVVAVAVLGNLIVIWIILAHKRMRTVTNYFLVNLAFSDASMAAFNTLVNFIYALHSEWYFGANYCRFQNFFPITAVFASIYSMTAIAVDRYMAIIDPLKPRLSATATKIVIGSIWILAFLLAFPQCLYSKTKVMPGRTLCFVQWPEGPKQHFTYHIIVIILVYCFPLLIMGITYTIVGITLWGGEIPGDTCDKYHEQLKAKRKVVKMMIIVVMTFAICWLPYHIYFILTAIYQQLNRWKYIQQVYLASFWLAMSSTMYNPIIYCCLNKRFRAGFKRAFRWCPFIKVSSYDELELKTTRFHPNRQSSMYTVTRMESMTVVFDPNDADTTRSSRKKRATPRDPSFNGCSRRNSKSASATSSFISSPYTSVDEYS
Human NK1 Receptor, sequence (P25103 whole entry): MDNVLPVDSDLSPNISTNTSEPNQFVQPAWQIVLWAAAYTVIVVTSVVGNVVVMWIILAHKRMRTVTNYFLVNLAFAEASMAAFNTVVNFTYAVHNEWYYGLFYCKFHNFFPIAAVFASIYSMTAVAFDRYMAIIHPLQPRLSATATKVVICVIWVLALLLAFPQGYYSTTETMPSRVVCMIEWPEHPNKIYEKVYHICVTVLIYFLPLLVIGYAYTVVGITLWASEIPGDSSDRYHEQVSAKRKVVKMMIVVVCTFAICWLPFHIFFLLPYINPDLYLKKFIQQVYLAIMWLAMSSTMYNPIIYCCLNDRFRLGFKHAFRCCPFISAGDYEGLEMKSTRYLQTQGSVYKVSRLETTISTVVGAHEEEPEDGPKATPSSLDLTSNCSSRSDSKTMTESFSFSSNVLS
Human NK2 (hNK2) receptor, sequence (P21452 whole entry): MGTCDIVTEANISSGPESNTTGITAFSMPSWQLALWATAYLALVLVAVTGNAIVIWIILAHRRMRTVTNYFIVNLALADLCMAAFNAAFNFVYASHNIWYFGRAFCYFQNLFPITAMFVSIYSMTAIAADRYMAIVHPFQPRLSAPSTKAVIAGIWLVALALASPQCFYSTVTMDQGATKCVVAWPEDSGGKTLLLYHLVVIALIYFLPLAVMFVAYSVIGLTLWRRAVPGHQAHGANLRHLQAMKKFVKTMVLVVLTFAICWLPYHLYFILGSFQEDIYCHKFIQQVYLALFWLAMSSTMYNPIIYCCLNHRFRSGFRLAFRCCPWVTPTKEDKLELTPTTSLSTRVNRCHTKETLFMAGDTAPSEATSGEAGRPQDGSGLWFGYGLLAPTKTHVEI

| IC50 [1] | IC50 [2] | IC50 [3, 4] | IC50 [3] | SMILES |
| --- | --- | --- | --- | --- |
| 0.075 nM | 2 nM | – | – | CC(=O)N1CCC(C(=O)N2C[C@@H](N(C)C(=O)N(C)c3cc(C(F)(F)F)cc(C(F)(F)F)c3)[C@H](c3ccc(Cl)c(Cl)c3)C2)CC1 (racemic) [Example 66, 1-[(3S*, 4R*)-1-[(1-acetylpiperidin-4-yl)carbonyl]-4-(3,4-dichlorophenyl)pyrrolidin-3-yl]-3-[3,5-bis(trifluoromethyl)phenyl]-1,3-dimethylurea] |
| 0.11 nM | 4200 nM | – | – | CC(=O)N1CCC(C(=O)N2CC[C@@H](N(C)C(=O)N(C)c3cc(C(F)(F)F)cc(C(F)(F)F)c3)[C@H](c3ccc(F)cc3)C2)CC1 (relative stereo) [Example 4, 1-[(3R*,4R*)-1-[(1-acetylpiperidin-4-yl)carbonyl]-3-(4-fluorophenyl)piperidin-4-yl]-3-[3,5-bis(trifluoromethyl)phenyl]-1,3-dimethylurea] |
| 0.027 nM | 7.1 nM | – | – | CC(=O)N1CCC(C(=O)N2C[C@@H](N(C)C(=O)N(C)c3cc(C(F)(F)F)cc(C(F)(F)F)c3)[C@H](c3ccc(F)cc3)C2)CC1 [Example 71b] |
| 0.032 nM | 120 nM | – | 4400 nM | CC(=O)N1CCC(C(=O)N2C[C@@H](N(C)C(=O)N(C)c3cc(C(F)(F)F)cc(C(F)(F)F)c3)[C@H](c3ccc(F)cn3)C2)CC1 [Example 192, 1-[(3S,4R)-1-[(1-acetylpiperidin-4-yl)carbonyl]-4-(5-fluoropyridin-2-yl)pyrrolidin-3-yl]-3-[3,5-bis(trifluoromethyl)phenyl]-1,3-dimethylurea] |
| 0.049 nM | 42 nM | 1100 nM | – | COC(=O)N[C@H]1CC[C@H](C(=O)N2C[C@@H](N(C)C(=O)N(C)c3cc(C(F)(F)F)cc(C(F)(F)F)c3)[C@H](c3ccc(F)cc3)C2)CC1 [Example 233, methyl (trans-4-{[(3S,4R)-3-[{[3,5-bis(trifluoromethyl)phenyl](methyl)carbamoyl}(methyl)amino]-4-(4-fluorophenyl)pyrrolidin-1-yl]carbonyl}cyclohexyl)carbamate] |
| 0.07 nM | 2.4 nM | – | – | CN(C(=O)N(C)[C@@H]1CN(C(=O)C2CCN(C(=O)C(C)(C)O)CC2)C[C@H]1c1ccc(F)cc1)c1cc(C(F)(F)F)cc(C(F)(F)F)c1 [Example 308, 1-[3,5-bis(trifluoromethyl)phenyl]-3-[(3S,4R)-4-(4-fluorophenyl)-1-{[1-(2-hydroxy-2-methylpropanoyl)piperidin-4-yl]carbonyl}pyrrolidin-3-yl]-1,3-dimethylurea] |
| 0.039 nM | 59 nM | 650 nM | – | CN(C(=O)N(C)[C@@H]1CN(C(=O)NC2CCOCC2)C[C@H]1c1ccc(F)cc1)c1cc(C(F)(F)F)cc(C(F)(F)F)c1 [Example 378, (3S,4R)-3-[{[3,5-bis(trifluoromethyl)phenyl](methyl)carbamoyl}(methyl)amino]-4-(4-fluorophenyl)-N-(tetrahydro-2H-pyran-4-yl)pyrrolidine-1-carboxamide] |

The remaining lines, values behind:

| SMILES | IC50 [1] | IC50 [2] | IC50 [3, 4] | IC50 [3] |
| --- | --- | --- | --- | --- |
| CC(=O)N1CCC(C(=O)N2CC[C@@H](N(C)C(=O)N(C)c3cc(C(F)(F)F)cc(C(F)(F)F)c3)[C@H](c3ccc(Cl)c(Cl)c3)C2)CC1 [Example 25, 1-[(3R,4R)-1-[(1-acetylpiperidin-4-yl)carbonyl]-3-(3,4-dichlorophenyl)piperidin-4-yl]-3-[3,5-bis(trifluoromethyl)phenyl]-1,3-dimethylurea] | 0.031 nM | 7.1 nM | 1400 nM | – |
| CC(=O)N1CCC(C(=O)N2CC[C@@H](N(C)C(=O)Nc3ccc(Cl)cc3)[C@H](c3ccc(Cl)c(Cl)c3)C2)CC1 [Example 61, 1-[(3R,4R)-1-[(1-acetylpiperidin-4-yl)carbonyl]-3-(3,4-dichlorophenyl)piperidin-4-yl]-3-(4-chlorophenyl)-1-methylurea] | 290 nM | > 100 nM | 99 nM | – |
| CN(C(=O)N(C)[C@@H]1CCN(C2CCS(=O)(=O)CC2)C[C@H]1c1ccc(F)cc1)c1cc(C(F)(F)F)cc(C(F)(F)F)c1 [Example 104, 1-[3,5-bis(trifluoromethyl)phenyl]-3-[(3R,4R)-1-(1,1-dioxidetetrahydro-2H-thiopyran-4-yl)-3-(4-fluorophenyl)piperidin-4-yl]-1,3-dimethylurea monohydrochloride] | 0.073 nM | 100 nM | – | – |
| CC(=O)N1CCC(C(=O)N2C[C@@H](N(C)C(=O)N(C)c3cc(Cl)cc(Cl)c3)[C@H](c3ccc(F)cc3)C2)CC1 [Example 176, 1-[(3S,4R)-1-[(1-acetylpiperidin-4-yl)carbonyl]-4-(4-fluorophenyl)pyrrolidin-3-yl]-3-(3,5-dichlorophenyl)-1,3-dimethylurea] | 0.029 nM | 12 nM | 600 nM | – |
| CN(C(=O)N(C)[C@@H]1CN(C(=O)N2CCN(S(C)(=O)=O)CC2)C[C@H]1c1ccc(F)cc1)c1cc(Cl)cc(Cl)c1 [Example 420, 1-(3,5-dichlorophenyl)-3-[(3S,4R)-4-(4-fluorophenyl)-1-{[4-(methylsulfonyl)piperazin-1-yl]carbonyl}pyrrolidin-3-yl]-1,3-dimethylurea] | 0.03 nM | 77 nM | – | 120 nM |
